Experimental data taken from paper PMC8236048, “Pharmaceutical design of a delivery system for the bacteriocin lacticin 3147” (Drug Delivery and Translational Research, 2021).

What was measured:
[1] = test system: trypsin; assay: Enzyme degradation of lacticin 3147 by trypsin (activity, MALDI-TOF); type: in vitro ADME; details: 3 h incubation, n = 3
Protocol: (§1) Lacticin 3147 production was confirmed by matrix-assisted laser desorption ionization-time of flight (MALDI-TOF) mass spectrometry using sinapinic acid as the matrix. About 0.7 μl of the matrix solution (sinapinic acid, 4 mg/ml in 50% acetone/50% methanol) was added to the target plate and left to evaporate (30 s) at ambient conditions. Individual peptides (Ltnα or Ltnβ) were resuspended in 70% IPA and mixed at a 1:1 volume ratio with a 10-mg/ml stock solution of sinapinic acid in 60% ACN with 0.1% TFA. About 0.3 μl of this peptide-matrix solution was then added to the matrix layer previously applied to the plate and evaporated at ambient conditions. The plate was inserted into a MALDI-TOF Ultraflex mass spectrometer (Bruker) and analysed using reflectron positive 700–3500 Da mode. 100 shots were fired at 88% intensity. This method was also used for the analyses of samples from the enzyme degradation studies.
Trypsin and α-chymotrypsin stock solutions (50 mg/ml) were resuspended in water. Pepsin (50 mg/ml) was resuspended in 0.02 M HCL. […] The effect of the proteases pepsin, α-chymotrypsin, and trypsin on the lacticin 3147 peptides was determined by MALDI-TOF mass spectrometry. […] After 3 h, 1 µl was removed from each sample and it was analysed by MALDI-TOF mass spectrometry. […]

[2] = molecular target: T1, α-chymotrypsin (Bos taurus, UniProt P00766); assay: Enzyme degradation of lacticin 3147 by α-chymotrypsin (activity, MALDI-TOF); type: in vitro ADME; details: 3 h incubation, n = 3
T1 construct: purchased Sigma-Aldrich Ireland Ltd
Protocol: as §1
(§2) Trypsin and α-chymotrypsin stock solutions (50 mg/ml) were resuspended in water. Pepsin (50 mg/ml) was resuspended in 0.02 M HCL. About 1 mg/ml individual solutions of Ltnα and Ltnβ in 70% IPA were filtered and diluted (1 in 20) in sterile PBS to give a final peptide concentration of 50 µg/ml. After this, 5.3 µl Ltnα and 4.6 µl Ltnβ were added to the same well of a 96-well plate. The pH of the lacticin 3147-pepsin solution was 2.29. Control wells consisting of Ltnα and Ltnβ together, Ltnα alone, and Ltnβ alone with no enzyme were included. The 96-well plate was incubated for 3 h at 37 °C to allow the enzyme to act. After incubation, the wells were filled to 50 μl with PBS and 150 μl of diluted bacterial cell culture (L. monocytogenes at an OD of 0.1) was added to each well. The final peptide concentration of 400 nM (1.31 µg/ml Ltnα, 1.14 µg/ml Ltnβ) was obtained when the wells were filled to 200 µl. […] The effect of the proteases pepsin, α-chymotrypsin, and trypsin on the lacticin 3147 peptides was determined by MALDI-TOF mass spectrometry. […] After 3 h, 1 µl was removed from each sample and it was analysed by MALDI-TOF mass spectrometry. […]

[3] = molecular target: T2, pepsin (Sus scrofa, UniProt P00791); assay: Enzyme degradation of lacticin 3147 by pepsin (activity, MALDI-TOF, RP-HPLC); type: in vitro ADME; details: 3 h; for intact peptide after incubation with pepsin (MALDI-TOF): 25 mg/ml pepsin, 13.38 µg/ml Ltnα, 11.86 µg/ml Ltnβ, pH 2.29, n = 3; for concentration with versus without pepsin (RP-HPLC): 60 mg/ml pepsin, 62.5 µg/ml peptide, 37 °C, RP-HPLC UV 214 nm
T2 construct: purchased Sigma-Aldrich Ireland Ltd
T2 sequence (P00791 60-385): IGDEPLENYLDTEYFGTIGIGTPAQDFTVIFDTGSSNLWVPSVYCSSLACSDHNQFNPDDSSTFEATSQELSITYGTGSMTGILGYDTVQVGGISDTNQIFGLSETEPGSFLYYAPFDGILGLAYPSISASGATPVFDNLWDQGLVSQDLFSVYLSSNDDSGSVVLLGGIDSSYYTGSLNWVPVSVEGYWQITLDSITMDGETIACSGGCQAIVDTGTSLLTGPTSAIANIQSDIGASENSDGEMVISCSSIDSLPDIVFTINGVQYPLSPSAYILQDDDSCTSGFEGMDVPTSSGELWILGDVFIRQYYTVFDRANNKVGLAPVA
Protocol: as §1
All lacticin 3147 samples were filtered through a 0.2-µm PES filter before analysis by RP-HPLC using an Agilent 1200 Infinity Series HPLC (Agilent Technologies, USA). The HPLC separations were carried out on an Aeris 3.6 µm Peptide 100 Å 250 × 4.6 mm, liquid chromatography column with a flow rate of 0.8 ml/min, and with 0.1% trifluoroacetic acid (TFA) in water as aqueous phase-A and 0.1% TFA in acetonitrile (ACN) as organic phase-B. The total run time was 51 min. The mobile phase started with 30:70 A:B for 3 min and change linearly to 35:65 A:B over 30 min. The organic phase was then adjusted to 100% within 1 min and continued to flow for 5 min. After this, the mobile phase returned to the initial ratio to stabilize the chromatographic system. The detector was set at 214 nm. The peak area (mAU) was plotted against the concentration (1.56–500 µg/ml) to make a calibration curve. The coefficients of determination (R^2 values) were 0.9963 and 0.9983 for Ltnα and Ltnβ respectively. This method was subsequently used for quantitative analysis of Ltnα and Ltnβ.
as §2, with “µl. Blanks were set up in triplicate with media only and PBS only. The three control wells were also set up with bacterial culture and each enzyme only.” for “µl.”
Pepsin’s effect on lacticin 3147 was also investigated by RP-HPLC. […] After incubation, aliquots were taken, filtered, and analysed by RP-HPLC to determine if pepsin degrades Ltnα or Ltnβ to any extent.

[4] = test system: C. difficile; details: treatment failures of C. difficile infection after use of antibiotics; cited from earlier work
Excerpt: Approximately 223,900 C. difficile infections and 12,800 resulting deaths were reported in the USA in 2017 [17]. Treatment failures and recurrences of infection after the use of antibiotics are increasingly common, with a 2–38% failure rate for vancomycin and 8–50% for metronidazole. A more virulent strain of C. d ...

| SMILES | intact peptide after incubation with trypsin (MALDI-TOF) [1] | intact peptide after incubation with α-chymotrypsin (MALDI-TOF) [2] | intact peptide after incubation with pepsin (MALDI-TOF) [3] | concentration with versus without pepsin (RP-HPLC) [3] | failure rate [4] |
| --- | --- | --- | --- | --- | --- |
| CC=C(NC(=O)C1CSCC(N)C(=O)N1)C(=O)N[C@@H](CC(N)=O)C(=O)NC(=CC)C(=O)N[C@@H](Cc1ccccc1)C(=O)N[C@H](C)C(=O)N[C@@H](CC(C)C)C(=O)NC1CSCC(C(=O)NC2C(=O)N[C@@H](CC(C)C)C(=O)NC3C(=O)N[C@@H](Cc4c[nH]cn4)C(=O)N[C@@H](CCC(=O)O)C(=O)NC(CSC2C)C(=O)N[C@@H](CCSC)C(=O)N[C@@H](C)C(=O)N[C@@H](Cc2c[nH]c4ccccc24)C(=O)NC(C(=O)N[C@@H](CCCCN)C(=O)O)CSC3C)NC(=O)[C@H](Cc2c[nH]c3ccccc23)NC(=O)[C@H](C)NC(=O)CNC(=O)[C@H](CC(N)=O)NC(=O)[C@H](CC(N)=O)NC(=O)CNC(=O)[C@H](Cc2c[nH]c3ccccc23)NC(=O)[C@H](Cc2ccc(O)cc2)NC(=O)[C@H](CC(=O)O)NC1=O (stereo partly shown) [Ltnα] | no masses corresponding to intact | no masses corresponding to intact | Masses corresponding to Ltnα and Ltnβ can be seen | not significantly different |  |
| CC=C(NC(=O)C(=O)CC)C(=O)N1CCC[C@H]1C(=O)N[C@@H](C)C(=O)NC(=CC)C(=O)N1CCC[C@H]1C(=O)N[C@@H](C)C(=O)N[C@H](C(=O)N[C@H](C)C(=O)N[C@H](C(=O)N[C@@H](CC(C)C)C(=O)N[C@H](C)C(=O)N[C@@H](C)C(=O)N[C@@H](Cc1ccc(O)cc1)C(=O)N[C@H](C(=O)NC1CSCC(C(=O)N2CCC[C@H]2C(=O)NC2C(=O)N[C@@H]([C@@H](C)O)C(=O)N[C@@H](CCCCN)C(=O)NC(C(=O)NC3C(=O)N[C@@H](CCCNC(=N)N)C(=O)N[C@@H](C)C(=O)NC(C(=O)O)CSC3C)CSC2C)NC(=O)[C@H]([C@@H](C)O)NC(=O)[C@H](CC(N)=O)NC(=O)[C@H]([C@@H](C)O)NC1=O)[C@@H](C)CC)[C@@H](C)CC)[C@@H](C)CC (stereo partly shown) [Ltnβ] | no masses corresponding to intact | no masses corresponding to intact | Masses corresponding to Ltnα and Ltnβ can be seen | not significantly different |  |
| Cc1ncc([N+](=O)[O-])n1CCO [metronidazole] |  |  |  |  | 8–50% |
| CN[C@H](CC(C)C)C(=O)N[C@H]1C(=O)N[C@@H](CC(N)=O)C(=O)N[C@H]2C(=O)N[C@H]3C(=O)N[C@H](C(=O)N[C@H](C(=O)O)c4cc(O)cc(O)c4-c4cc3ccc4O)[C@H](O)c3ccc(c(Cl)c3)Oc3cc2cc(c3O[C@@H]2O[C@H](CO)[C@@H](O)[C@H](O)[C@H]2O[C@H]2C[C@](C)(N)[C@H](O)[C@H](C)O2)Oc2ccc(cc2Cl)[C@H]1O [vancomycin] |  |  |  |  | 2–38% |
